This is an account of results in ChEMBL document CHEMBL3593175, “Bicyclic [3.3.0]-Octahydrocyclopenta[c]pyrrolo Antagonists of Retinol Binding Protein 4: Potential Treatment of Atrophic Age-Related Macular Degeneration and Stargardt Disease” (J Med Chem, 2015).

Where only a bound is given, the exact number is not on record here.

The target in data set [1] is T1, Retinol-binding protein 4 (Homo sapiens, UniProt P02753). The data set can be described thus: Displacement of [3H]-retinol from RBP4 (unknown origin) by scintillation proximity assay.
In data set [2] the target is T1, Retinol-binding protein 4. Nature of the data set: Inhibition of retinol-induced interaction of bacterially expressed MBP-tagged RBP4 (unknown origin) with Eu3+ cryptate labeled TTR by HTRF assay.
The nature of data set [3]: Metabolic stability in rat liver microsomes assessed as compound remaining at 10 uM after 30 mins. The format is ADME. Conditions: read-out: Stability.
Data set [4] is described as follows: Metabolic stability in human liver microsomes assessed as compound remaining at 10 uM after 30 mins. Conditions: read-out: Stability. It counts as ADME.

On to `Cc1cc(C(N)=O)nc(N2C[C@H]3C[C@@H](c4ccccc4C(F)(F)F)C[C@H]3C2)n1`, for which the half-inhibitory concentration (IC50) is 3.3 nM in data set [1] and 248 nM in data set [2].

Consider `Cc1cc(-c2nnn[nH]2)nc(N2C[C@H]3C[C@@H](c4ccccc4C(F)(F)F)C[C@H]3C2)n1`, for which the IC50 in data set [2] is 175 nM.

As to `Cc1ccc(N2C[C@H]3C[C@@H](c4ccccc4C(F)(F)F)C[C@H]3C2)nc1C(=O)O`, the IC50 in data set [1] is 584 nM; in data set [2], 4910 nM.

As for `O=C(O)c1cncc(N2C[C@H]3C[C@@H](c4ccccc4C(F)(F)F)C[C@H]3C2)c1`, the half-inhibitory concentration (IC50) in data set [1] is more than 3000 nM.

Regarding `O=C(O)c1cccc(N2C[C@H]3C[C@@H](c4ccccc4C(F)(F)F)C[C@H]3C2)c1`, the IC50 came out at 83.2 nM in data set [1] and 3960 nM in data set [2].

Consider `Cc1ccc(C(=O)O)c(N2C[C@H]3C[C@@H](c4ccccc4C(F)(F)F)C[C@H]3C2)n1`, for which the IC50 in data set [1] came to 68.4 nM; in data set [2], 2000 nM.

On to `O=C(O)c1cncc(N2C[C@H]3C[C@@H](c4ccccc4C(F)(F)F)C[C@H]3C2)n1`, for which the IC50 in data set [1] stood at 166 nM.

Regarding `O=C(O)c1cnnc(N2C[C@H]3C[C@@H](c4ccccc4C(F)(F)F)C[C@H]3C2)c1`, the IC50 in data set [1] was 23 nM; in data set [2] it was 437 nM.

Turning to `Cc1sc(N2C[C@H]3C[C@@H](c4ccccc4C(F)(F)F)C[C@H]3C2)nc1C(=O)O`, the half-maximal inhibitory concentration (IC50) in data set [1] amounted to 29.3 nM; in data set [2], 495 nM.

Regarding `Cc1cc(C(=O)O)nc(N2C[C@H]3C[C@@H](c4cc(F)ccc4C(F)(F)F)C[C@H]3C2)n1`, the figures for the IC50 in data set [1] and in data set [2] were 46.3 nM and 33.4 nM, respectively.

`Cc1cc(C(=O)O)nc(N2C[C@H]3C[C@@H](c4cccc(F)c4C(F)(F)F)C[C@H]3C2)n1` displayed an IC50 in data set [1] of 196 nM.

`Cc1cc(C(=O)O)nc(N2C[C@H]3C[C@@H](c4cc(F)ccc4Cl)C[C@H]3C2)n1`: the IC50 amounted to 532 nM in data set [1] and 347 nM in data set [2].

For `Cc1cc(C(=O)O)nc(N2C[C@H]3C[C@@H](c4cccc(F)c4Cl)C[C@H]3C2)n1`, the concentration for half-maximal inhibition (IC50) in data set [1] came out at 137 nM; in data set [2], 504 nM.

With `Cc1cc(C(=O)O)nc(N2C[C@H]3C[C@@H](c4cnccc4C(F)(F)F)C[C@H]3C2)n1`, the half-maximal inhibitory concentration (IC50) in data set [1] was 51.8 nM; in data set [2], 821 nM.

On to `Cc1cc(C(=O)O)nc(N2C[C@H]3C[C@@H](c4cccnc4C(F)(F)F)C[C@H]3C2)n1`, for which the IC50 worked out at 31.1 nM in data set [1] and 719 nM in data set [2].

In the case of `COC(=O)c1cc(C)nc(N2CCC(c3ccccc3C(F)(F)F)CC2)n1`, the IC50 stood at 4.1 nM in data set [1] and 132 nM in data set [2].

`Cc1cc(C(=O)O)nc(N2CCC(c3ccccc3C(F)(F)F)CC2)n1`: the results for the IC50 in data set [1] and in data set [2] were 35.3 nM and 188 nM, respectively. The remaining at 0.5 h, 10 µM in data set [3] was 96%; in data set [4] it was 68%.

`COC(=O)c1cc(C)nc(N2CCN(c3ccccc3C(F)(F)F)CC2)n1`: the values for the IC50 in data set [1] and in data set [2] were 9.7 nM and 1400 nM, respectively. Also, the remaining at 0.5 h, 10 µM in data set [3] and in data set [4] was 0% throughout.

For the compound `Cc1cc(C(=O)O)nc(N2CCN(c3ccccc3C(F)(F)F)CC2)n1`, the IC50 turned out to be 89.5 nM in data set [1] and 511 nM in data set [2]. The remaining at 0.5 h, 10 µM in data set [3] came out at 63%; in data set [4] it was 18%.

`Cc1cc(C(=O)O)nc(N2C[C@@H]3CN(c4ccccc4C(F)(F)F)C[C@@H]3C2)n1`: the IC50 came out at 57.4 nM in data set [1] and 140 nM in data set [2]. For the same compound, the remaining at 0.5 h, 10 µM in data set [3] is 76%; in data set [4] it was 80%.

With `COC(=O)c1cc(C)nc(N2C[C@H]3C[C@@H](c4ccccc4C(F)(F)F)C[C@H]3C2)n1`, the IC50 came to 6.3 nM in data set [1] and 100 nM in data set [2]. The remaining at 0.5 h, 10 µM was 9.8% in data set [3] and 0.2% in data set [4].

As to `O=C(O)c1ccnc(N2C[C@H]3C[C@@H](c4ccccc4C(F)(F)F)C[C@H]3C2)n1`, in data set [1], the IC50 came to 20.8 nM.

On to `COc1cc(C(=O)O)nc(N2C[C@H]3C[C@@H](c4ccccc4C(F)(F)F)C[C@H]3C2)n1`, for which the IC50 is 12.8 nM in data set [1] and 81.2 nM in data set [2].

In data set [1], `CC(C)c1cc(C(=O)O)nc(N2C[C@H]3C[C@@H](c4ccccc4C(F)(F)F)C[C@H]3C2)n1` showed an IC50 of 153 nM.

On to `Cc1nc(N2C[C@H]3C[C@@H](c4ccccc4C(F)(F)F)C[C@H]3C2)ncc1C(=O)O`, for which the half-inhibitory concentration (IC50) in data set [1] amounted to 40.8 nM; in data set [2], 523 nM.
